Type in all cases: biochemical
The target in assay [1] is T1, human FLT4 (Homo sapiens, UniProt P35916).
T1 construct: a construct expressing the human FLT4 (789-1207) with an amino terminal GST tag; host or cells: Sf9 insect cells (baculovirus)
In words: FLT4 kinase assay (DELFIA enzyme inhibition). Conditions: read-out: FLT4 IC50. A digest of the protocol: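 Read-out is DELFIA: biotinylated MET Tyr1253-derived peptide captured on Neutravidin, phosphotyrosine detected by Eu-antibody time-resolved fluorescence. Enzyme is Sf9-expressed GST-FLT4 (789-1207), reacting 30 min at room temperature before EDTA stop. IC50 derived from plotted % inhibition.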

The target of assay [2] is T2, human FLT3 (Homo sapiens, UniProt P36888).
T2 construct: a construct expressing the human FLT3 (564-993) with an amino terminal GST tag; host or cells: Sf9 insect cells (baculovirus)
T2 sequence (P36888 564-993): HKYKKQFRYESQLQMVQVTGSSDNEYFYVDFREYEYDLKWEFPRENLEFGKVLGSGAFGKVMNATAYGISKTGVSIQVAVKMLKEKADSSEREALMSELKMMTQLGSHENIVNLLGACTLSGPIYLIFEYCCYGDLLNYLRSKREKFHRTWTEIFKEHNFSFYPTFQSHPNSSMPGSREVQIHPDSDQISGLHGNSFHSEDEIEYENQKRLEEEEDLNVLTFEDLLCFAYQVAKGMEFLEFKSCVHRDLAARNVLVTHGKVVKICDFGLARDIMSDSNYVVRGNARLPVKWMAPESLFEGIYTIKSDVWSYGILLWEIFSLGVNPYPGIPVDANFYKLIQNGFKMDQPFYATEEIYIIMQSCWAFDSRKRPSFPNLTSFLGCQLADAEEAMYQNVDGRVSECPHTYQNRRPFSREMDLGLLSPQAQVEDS
In words: FLT3 kinase assay (DELFIA enzyme inhibition). A digest of the protocol: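 GST-tagged human FLT3 (564-993), expressed in sf9 cells, phosphorylated a biotinylated Gastrin Precursor (Tyr 87)-derived peptide for 30 min at room temperature before EDTA stop. The captured peptide was detected by Eu-labelled anti-phosphotyrosine DELFIA time-resolved fluorescence. IC50 was derived from % inhibition curves.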

Assay [3] has as its target T3, human Aurora A (Homo sapiens, UniProt O14965).
T3 construct: Histidine tag (N); host or cells: Sf9 insect cells (baculovirus)
T3 sequence (O14965 1-403): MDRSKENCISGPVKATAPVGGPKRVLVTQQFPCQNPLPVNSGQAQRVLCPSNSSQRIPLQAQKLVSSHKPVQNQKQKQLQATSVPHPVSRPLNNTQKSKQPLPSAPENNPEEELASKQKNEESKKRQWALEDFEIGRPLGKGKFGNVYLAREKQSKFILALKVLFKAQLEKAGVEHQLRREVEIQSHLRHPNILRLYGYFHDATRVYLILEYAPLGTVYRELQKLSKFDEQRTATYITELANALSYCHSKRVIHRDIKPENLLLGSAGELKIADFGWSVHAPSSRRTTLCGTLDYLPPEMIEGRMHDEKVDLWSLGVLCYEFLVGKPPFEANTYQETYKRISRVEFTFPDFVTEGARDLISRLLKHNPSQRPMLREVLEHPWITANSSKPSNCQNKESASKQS
In words: Aurora A kinase assay (DELFIA enzyme inhibition). The note with it: read-out: Aurora A IC50. A digest of the protocol: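 DELFIA read-out (time-resolved Eu fluorescence, 620 nm emission) after Neutravidin capture of biotinylated peptide substrate and antibody detection. Reaction: Ni-agarose-purified Aurora A, 30 min at room temperature, stopped with 100 mM EDTA.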

T1 sequence (P35916 789-1207): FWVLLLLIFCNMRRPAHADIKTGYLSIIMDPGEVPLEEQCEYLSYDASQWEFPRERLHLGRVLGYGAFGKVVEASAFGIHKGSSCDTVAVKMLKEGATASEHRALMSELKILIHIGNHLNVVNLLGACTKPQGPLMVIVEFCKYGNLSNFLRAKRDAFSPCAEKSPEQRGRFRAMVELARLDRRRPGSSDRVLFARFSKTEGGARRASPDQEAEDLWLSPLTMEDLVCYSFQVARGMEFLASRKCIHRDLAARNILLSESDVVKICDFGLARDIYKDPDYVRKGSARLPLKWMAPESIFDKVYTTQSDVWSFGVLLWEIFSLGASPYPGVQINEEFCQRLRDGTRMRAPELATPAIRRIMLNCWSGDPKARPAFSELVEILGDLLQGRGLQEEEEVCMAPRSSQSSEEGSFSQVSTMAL

On to `CC(C)(C)OC(=O)NCC1CN(C(=O)c2ccc(Nc3oc(-c4c(F)cccc4F)nc3C(N)=O)cc2)CCO1` (stereo not drawn) [Example U-22, tert-butyl (4-(4-(4-carbamoyl-2-(2,6-difluorophenyl)oxazol-5-ylamino)benzoyl)morpholin-2-yl)methylcarbamate], for which the half-maximal inhibitory concentration (IC50) in assay [1], in assay [2] and in assay [3] was less than 10 µM each time.
On to `NC(=O)c1nc(-c2c(F)cccc2F)oc1-c1ccc(CN2CCNCC2)cc1` [Example G-1, 2-(2,6-difluorophenyl)-5-(4-(piperazin-1-ylmethyl)phenyl)oxazole-4-carboxamide], for which the IC50 – broadly, the concentration that gives 50% inhibition – in assay [1] was less than 10 µM; in assay [2] it was less than 100 µM; in assay [3] it was less than 10 µM.
With `NC(=O)c1nc(-c2c(F)cccc2F)oc1Nc1ccc(N2CCNC(=O)C2)cc1` [Example Q-19, 2-(2,6-difluorophenyl)-5-(4-(3-oxopiperazin-1-yl)phenylamino)oxazole-4-carboxamide], the IC50 in assay [1], in assay [2] and in assay [3] was less than 10 µM in each case.
For `COc1ccc(-c2oc(-c3c[nH]c4ccccc34)nc2C(N)=O)cc1` [Example E-3, 2-(1H-indol-3-yl)-5-(4-methoxyphenyl)oxazole-4-carboxamide], the IC50 in assay [1] is less than 10 µM; in assay [2], less than 100 µM; in assay [3], less than 100 µM.
`CN(C)C(=O)c1ccc(Nc2oc(-c3c(F)cccc3F)nc2C(N)=O)cc1` [Example Q-20, 2-(2,6-difluorophenyl)-5-(4-(dimethylcarbamoyl)phenylamino)oxazole-4-carboxamide]: the IC50 in assay [1], in assay [2] and in assay [3] was less than 10 µM each time.
In the case of `NC(=O)c1nc(-c2c(F)cccc2F)oc1-c1cccnc1` [Example F-9, 2-(2,6-difluorophenyl)-5-(pyridin-3-yl)oxazole-4-carboxamideH], the results for the IC50 in assay [1], in assay [2] and in assay [3] were less than 10 µM, less than 100 µM and less than 100 µM, respectively.
Take `NC(=O)c1nc(-c2c(F)cccc2F)oc1Nc1ccc(N2CCCCC2)cc1` [Example Q-13, 2-(2,6-difluorophenyl)-5-(4-(piperidin-1-yl)phenylamino)oxazole-4-carboxamide]: the IC50 in assay [1] was less than 10 µM; in assay [2], less than 10 µM; in assay [3], less than 100 µM.
Take `COc1ccc(-c2oc(-c3cccc(C(F)(F)F)c3F)nc2C(N)=O)cc1` [Example N-7, 2-(2-fluoro-3-(trifluoromethyl)phenyl)-5-(4-methoxyphenyl)oxazole-4-carboxamide]: the IC50 in assay [1], in assay [2] and in assay [3] was less than 100 µM throughout.
In the case of `NC(=O)c1nc(-c2c(F)cccc2F)oc1-c1ccc(OCCN2CCC(C(N)=O)CC2)cc1` [Example S-10, 1-(2-(4-(4-carbamoyl-2-(2,6-difluorophenyl)oxazol-5-yl)phenoxy)ethyl)piperidine-4-carboxamide], the IC50 in assay [1], in assay [2] and in assay [3] was less than 10 µM in each case.
In the case of `NC(=O)c1nc(-c2c(F)cccc2F)oc1Nc1ccc(C(=O)NCCCO)cc1` [Example U-17, 5-(4-((3-hydroxypropyl)carbamoyl)phenylamino)-2-(2,6-difluorophenyl)oxazole-4-carboxamide], the IC50 in assay [1], in assay [2] and in assay [3] was less than 10 µM in each case.
As for `NC(=O)c1nc(-c2c(F)cccc2F)oc1-c1ccc(OCCN2CCCCC2)cc1` [Example F-14, 2-(2,6-difluorophenyl)-5-(4-(2-(piperidin-1-yl)ethoxy)phenyl)oxazole-4-carboxamide], the IC50 in assay [1], in assay [2] and in assay [3] was less than 10 µM in each case.
With `NC(=O)c1nc(-c2c(F)cccc2F)oc1Nc1ccc(-n2cncn2)cc1` [Example Q-30, 5-(4-(1H-1,2,4-triazol-1-yl)phenylamino)-2-(2,6-difluorophenyl)oxazole-4-carboxamide], the IC50 is less than 10 µM in assay [1], less than 100 µM in assay [2] and less than 10 µM in assay [3].
`NC(=O)c1nc(-c2c(F)cccc2F)oc1-c1ccc(OCCN2CCN(CCO)CC2)cc1` [Example S-7, 2-(2,6-difluorophenyl)-5-(4-(2-(4-(2-hydroxyethyl)piperazin-1-yl)ethoxy)phenyl)oxazole-4-carboxamide]: the IC50 in assay [1], in assay [2] and in assay [3] was less than 10 µM throughout.
Consider `NC(=O)c1nc(-c2c(F)cccc2F)oc1-c1ccc(OCC(O)CN2CCCCC2)cc1` (stereo not drawn) [Example T-1, 2-(2,6-difluorophenyl)-5-(4-(2-hydroxy-3-(piperidin-1-yl)propoxy)phenyl)oxazole-4-carboxamide], for which the concentration for half-maximal inhibition (IC50) in assay [1], in assay [2] and in assay [3] was less than 10 µM each time.
For `NC(=O)c1nc(-c2c(F)cccc2F)oc1-c1ccc(OCCCN2CCOCC2)cc1` [Example S-13, 2-(2,6-difluorophenyl)-5-(4-(3-morpholinopropoxy)phenyl)oxazole-4-carboxamide], the IC50 in assay [1], in assay [2] and in assay [3] was less than 10 µM throughout.
As to `COc1ccc(-c2oc(Nc3ccccc3OC)nc2C(N)=O)cc1` [Example R-2, 5-(4-methoxyphenyl)-2-(2-methoxyphenylamino)oxazole-4-carboxamide], the concentration for half-maximal inhibition (IC50) in assay [1], in assay [2] and in assay [3] was less than 10 µM throughout.
As for `CN1CCN(CC(O)COc2ccc(-c3oc(-c4c(F)cccc4F)nc3C(N)=O)cc2)CC1` (stereo not drawn) [Example T-3, 2-(2,6-difluorophenyl)-5-(4-(2-hydroxy-3-(4-methylpiperazin-1-yl)propoxy)phenyl)oxazole-4-carboxamide], the IC50 in assay [1], in assay [2] and in assay [3] was less than 10 µM in each case.
In the case of `NC(=O)c1nc(Nc2cccnc2)oc1-c1ccc(N2CCNCC2)cc1` [Example R-14, 5-(4-(piperazin-1-yl)phenyl)-2-(pyridin-3-ylamino)oxazole-4-carboxamide], the IC50 in assay [1], in assay [2] and in assay [3] was less than 10 µM each time.
Turning to `NC(=O)c1nc(-c2ccccc2F)oc1Nc1ccc(N2CCOCC2)cc1` [Example Q-23, 2-(2-Fluorophenyl)-5-(4-morpholinophenylamino)oxazole-4-carboxamide], the IC50 in assay [1], in assay [2] and in assay [3] was less than 10 µM throughout.
Consider `NC(=O)c1nc(-c2c(F)cccc2Cl)oc1-c1ccc(OCCN2CCCCC2)cc1` [Example F-24, 2-(2-chloro-6-fluorophenyl)-5-(4-(2-(piperidin-1-yl)ethoxy)phenyl)oxazole-4-carboxamide], for which the IC50 in assay [1], in assay [2] and in assay [3] was less than 10 µM in each case.
Consider `CN1CCN(CCOc2ccc(-c3oc(-c4c(F)cccc4F)nc3C(N)=O)cc2)CC1` [Example S-1, 2-(2,6-difluorophenyl)-5-(4-(2-(4-methylpiperazin-1-yl)ethoxy)phenyl)oxazole-4-carboxamide], for which the IC50 was less than 10 µM in assay [1], less than 100 µM in assay [2] and less than 10 µM in assay [3].
In the case of `CN1CCN(c2ccc(-c3oc(-c4c(F)cccc4F)nc3C(N)=O)cc2)CC1` [Example H-1, 2-(2,6-difluorophenyl)-5-(4-(4-methylpiperazin-1-yl)phenyl)oxazole-4-carboxamide], the IC50 in assay [1], in assay [2] and in assay [3] was less than 10 µM each time.

These data come from patent US9187465B2, “Oxazole tyrosine kinase inhibitors” (Sareum Limited, priority 2007, dated 2015).
